Results taken from paper PMC11277004, “Di- and Triselenoesters—Promising Drug Candidates for the Future Therapy of Triple-Negative Breast Cancer” (International Journal of Molecular Sciences, 2024).
Where two headings read alike, the source gives them in different places.

Experiments:
Assay type in all cases: cell-based, human
[1] = system: MDA-MB-231 triple-negative breast cancer cells; test: DNA biosynthesis assay ([3H]-thymidine incorporation), MDA-MB-231; conditions: read-out: IC50, DNA biosynthesis
Description: The study of the antiproliferative properties (intensity of [^3H]-thymidine incorporation into cell DNA) of the tested derivatives against tested cell lines (MCF-7, MDA-MB-231, MCF-10A) was performed after 24 h incubation with varied concentrations of the tested compounds in the medium (0.5–5 µM) in 6-well plates (baseline seeding density: 5 × 10^5 cells/well). After 24 h the medium was removed, the cells were washed with PBS (Corning, Kennebunk, ME, USA), and a fresh medium was added. After that, the cells were treated with 0.5 µCi of tritium-labeled thymidine (specific activity 7 Ci/mmol) by incubating them with this compound for 4 h under the same conditions as the cell culture. In the first step, the medium was removed, and the cell monolayer was washed twice with 1 mL of 0.05 M Tris-HCl buffer pH 7.4 containing 0.11 M NaCl. To denature proteins, the cells were washed twice with 1 mL of 5% trichloroacetic acid (TCA) solution. Finally, cell lysis was performed by adding 1 mL of 0.1 M sodium hydroxide (NaOH) solution containing 1% sodium dodecyl sulfate (SDS) to each well. After five minutes, the obtained cell lysates were transferred to scintillation vials with 2 mL of scintillation fluid added to them beforehand. Radioactivity was measured using the Scintillation Counter 1900 TR, TRI-CARB (Packard, Perkin Elmer, Inc., San Jose, CA, USA). The intensity of DNA biosynthesis in the analyzed cells was expressed in terms of dpm/well. The result of the radioactivity measurement in the control cells (without the addition of tested compounds) was taken as 100%, while the values of cells incubated with the tested compounds were presented as a percentage of the control value.

[2] = system: caspase 8; test: Caspase 8 activity (FAM-FLICA, flow cytometry), MCF-7; conditions: 24 h
Description: (§1) The FAM-FLICA® Caspase Assay kits (all from ImmunoChemistry Technologies, Bloomington, MN, USA) and flow cytometer (BD FACSCanto II, BD Biosciences Systems, San Jose, CA, USA) were used to evaluate the activity of caspase 3/7, 8, and 9. MCF-7 and MDA-MB-231 cells were treated with selenoesters under the study (EDAG-1 and EDAG-8) and a reference agent (cisplatin) at two different concentrations (0.5 and 1 µM; treatment duration: 24 h). Following this, cells were collected, washed twice with cold PBS, and resuspended in an Apoptosis Wash Buffer to a final concentration of 5 × 10^5 cells/mL. In the next step, 290 µL each of cell suspension was taken and transferred into tubes. Then 10 µL of FLICA solution diluted immediately before use (1:5 v/v, using PBS) was added to the cells, mixed by pipetting, and incubated in the dark for 1 h at 37 °C. After this time, the cells were washed twice with 2 mL Apoptosis Wash Buffer, centrifuged, and resuspended in 300 µL of the buffer. Thus, prepared samples were immediately analyzed using a BD FACSCanto II flow cytometer (10,000 events) with the FACSDiva 6.0 software (both from BD Biosciences Systems, San Jose, CA, USA). The equipment calibration was carried out using the BD Cytometer Setup and Tracking Beads (BD Biosciences, San Diego, CA, USA).

[3] = system: caspase 8; test: Caspase 8 activity (FAM-FLICA, flow cytometry), MDA-MB-231; conditions: 24 h
Description: as §1

[4] = system: MCF-7 breast cancer cells; test: Mitochondrial membrane potential (JC-1, flow cytometry), MCF-7; conditions: 24 h
Description: The entire cell staining and cytometric analysis procedures were performed according to the instructions provided with the kit. In the first step, the cells (1 × 10^6 cells/sample) were washed and resuspended in 0.5 mL of buffer containing 10 µg/mL JC-1 dye. Incubation was carried out for 15 min at room temperature, protected from light. Afterward, the cells were washed twice with buffer, resuspended in 0.5 mL PBS, and immediately analyzed using a flow cytometer (BD FACSCanto II; 10,000 events measured) and the FACSDiva 6.0 software (BD Biosciences Systems, San Jose, CA, USA) to count the percentage of cells with reduced ΔΨm. The equipment was calibrated with the BD Cytometer Setup and Tracking Beads (BD Biosciences, San Diego, CA, USA).

[5] = system: p53; test: p53 protein expression by flow cytometry, MCF-7; conditions: 24 h
Description: For this purpose, Akt (PE), Bax (FITC), Bcl-2 (Alexa Fluor® 647), LC3A/B (Alexa Fluor® 488), and p53 (Alexa Fluor® 488) antibodies conjugated to different fluorochromes (all from Cell Signaling Technology, Beverly, MA, USA) were utilized. Each assay was performed according to the manufacturer's protocol available on their website. After incubation with the tested compounds, the cells were centrifuged, resuspended in 4% formaldehyde (100 μL/1 × 10^6 cells), and fixed for 15 min at room temperature. Afterward, to remove the formaldehyde, the cells were washed by centrifugation with excess PBS and the permeabilization step was triggered. For this purpose, ice-cold 90% methanol was added to the pre-chilled cell pellet, gently vortexed, and incubated for 1 h on ice. Later, the cells were washed by centrifugation with excess PBS again, resuspended in 100 μL of 1:100 diluted primary antibody (stain buffer was used for dilution), and incubated for 1 h at room temperature in the dark. After incubation, the cells were washed, resuspended in 300 μL PBS, and immediately tested with a flow cytometer (BD FACSCanto II, BD Biosciences Systems, San Jose, CA, USA; 10,000 events measured). The obtained results were analyzed using the FACSDiva 6.0 software (BD Biosciences Systems, San Jose, CA, USA). In the case of the p53 protein, the MRF values were obtained first during the flow cytometer readout utilizing FACSDiva software and later analyzed using FCS Express 7 (De Novo Software, Pasadena, CA, USA). The equipment calibration was performed using the BD Cytometer Setup and Tracking Beads (BD Biosciences, San Diego, CA, USA).

[6] = system: caspase 3/7; test: Caspase 3/7 activity (FAM-FLICA, flow cytometry), MDA-MB-231; conditions: 24 h
Description: as §1

| SMILES | IC50 ([1]; MDA-MB-231, 24 h incubation) | Active caspase 8 ± SD (cells) ([2]; MCF-7, 0.5 μM) | Active caspase 8 ± SD (cells) ([2]; MCF-7, 1 μM) | Active caspase 8 ± SD (cells) ([3]; MDA-MB-231, 0.5 μM) | Active caspase 8 ± SD (cells) ([3]; MDA-MB-231, 1 μM) | Decreased ΔΨm ± SD (cells) ([4]; MCF-7, 0.5 μM) | Decreased ΔΨm ± SD (cells) ([4]; MCF-7, 1 μM) | p53 protein expression, MRF ([5]; MCF-7, 0.5 μM) | p53 protein expression, MRF ([5]; MCF-7, 1 μM) | Active caspase 3/7 ± SD (cells) ([6]; MDA-MB-231, 0.5 μM) | Active caspase 3/7 ± SD (cells) ([6]; MDA-MB-231, 1 μM) | IC50 ([1]; Homo sapiens, MDA-MB-231, 24 h) |
| --- | --- | --- | --- | --- | --- | --- | --- | --- | --- | --- | --- | --- |
| N.N.[Cl][Pt][Cl] [Cisplatin, reference compound] | > 5000 nM | 3.7 ± 0.2% | 4.1 ± 0.2% | 7.3 ± 0.7% | 8.0 ± 1.6% | 6.3 ± 1.6% | 7.2 ± 0.4% | 375.8 ± 19.1 | 380.5 ± 20.4 | 5.2 ± 0.5% | 5.2 ± 0.6% | – |
| CC(=O)C[Se]C(=O)c1ccc(C(=O)[Se]CC(C)=O)cc1 [EDAG-1, Se,Se-bis(2-oxopropyl) benzene-1,4-bis(carboselenoate)] | – | 6.1 ± 0.6% | 6.6 ± 1.1% | 11.5 ± 0.9% | 14.4 ± 1.2% | 10.0 ± 0.4% | 15.3 ± 1.1% | 404.8 ± 23.7 | 407.8 ± 22.0 | 9.2 ± 0.5% | 12.5 ± 0.4% | 700 ± 150 nM |
| CC(=O)C[Se]C(=O)c1cc(C(=O)[Se]CC(C)=O)cc(C(=O)[Se]CC(C)=O)c1 [EDAG-8, Se,Se,Se-tris-(2-oxopropyl) benzene-1,3,5-tris-(carboxyselenoate)] | – | 8.5 ± 0.8% | 19.4 ± 2.6% | 15.0 ± 2.0% | 26.6 ± 3.6% | 18.7 ± 0.9% | 54.2 ± 4.6% | 421.3 ± 24.5 | 450.8 ± 28.7 | 19.7 ± 0.6% | 32.2 ± 2.9% | 470 ± 80 nM |
